Results on seven molecules are retold here after patent publication US9233163B2, “Hydrolytically releasable prodrugs for sustained release nanoparticle formulations” (The Children's Hospital of Philadelphia, priority 2010, dated 2016).

For series [1], the system named is rat aortic smooth muscle cells (A10). The experiment in a line: A10 growth inhibition by PTX derivatives, Alamar Blue assay. The format is cell-based. As to conditions: free compound, 2 hr incubation, cell viability 7 days post treatment vs untreated cells. The method, then: Cells seeded at 10% confluency on 96-well plates were incubated with the compounds at indicated PTX molar equivalent doses for 2 hr, and the cell viability was compared to that of untreated cells 7 days post treatment using the Alamar Blue assay.
For orientation: Alamar Blue is a resazurin reagent that responds to reducing activity.

The nature of series [2]: Model experiments estimating stability of ester bonds (half-hydrolysis in phosphate buffer). The format is physicochemical. As to conditions: pH=7 phosphate buffer at 21-22° C. The source says: Based on the results of the model experiments, paclitaxel 2′-esters with N-acylglycines and acyloxyacetic acids containing highly hydrophobic residues (e.g., derived from cholesterol or tocopherol) are the most suitable for encapsulation in sustained release nanoparticle formulations as rapidly cleavable PTX prodrugs. In the context of in-stent restenosis therapy, these unique designs more effectively confine the drug formulated in magnetically targeted MNP to the stented area. Importantly, the by-products of the prodrug degradation deriving from the anchor and the linking group are all biocompatible endogenous small molecules, rapidly eliminated via natural metabolic pathways.

The subject of series [3] is A10 cells. The experiment in a line: Magnetically guided A10 growth inhibition by MNP loaded with PTX derivatives. The format is cell-based, rat. As to conditions: compounds formulated in MNP, 5 min exposure, high gradient magnetic field (32.5 T/m), viability 7 days post treatment. The method, then:
Polylactide-based MNP were formulated with inclusion of nanocrystalline magnetite by a modification of the emulsification-solvent evaporation method. Ferric chloride hexahydrate and ferrous chloride tetrahydrate (170 and 62.5 mg, respectively) were dissolved in ethanol (2.5 mL) and mixed with freshly prepared aqueous sodium hydroxide (0.5 N, 5 mL). The precipitate was heated for 1 min at 90° C., cooled on ice, and separated on a magnet. The obtained magnetite was stirred with a solution of oleic acid in ethanol (150 mg in 2 mL) at 90° C. for 5 min. Free oleic acid was separated by deionized water. Magnetite was washed with ethanol, dispersed in 8 mL of chloroform, and used to dissolve 100 mg of poly(D,L-lactide) (molecular weight 75,000-120,000 Da) and 15 mg PTX or a PTX prodrug. The organic dispersion was emulsified by sonication on ice in 10 mL of an aqueous solution of bovine serum albumin (1% w/v), and the organic solvent was evaporated under reduced pressure. MNP were washed twice by magnetic decantation, resuspended in 6 mL of aqueous trehalose (10% w/v), passed through a sterile 5 μm filter unit and lyophilized. […]
Cells were incubated with indicated doses of the compounds formulated in MNP for 5 min with or without (mag+ or mag−) the presence of a high gradient magnetic field (average field gradient of 32.5 T/m). Cell viability was determined as above 7 days post treatment.

Series [4] in a line: In vitro release kinetics and recovery from MNP, external sink method. Type of series: physicochemical. The conditions noted are these: for total recovered (release medium samples and upon experiment termination): MNP diluted 1:500 in phosphate buffer with 2% bovine serum albumin, heptane/1-octanol acceptor, 5-day experiment; for initial drug payload still present in the MNP: at the end of the 5-day experiment, extraction in 1-octanol. The method, then:
The release of 2′-PTX-glycol-suc-Chol from MNP was measured in comparison with PTX using the external sink method. A 1:1 mixture of heptane and 1-octanol was used as the acceptor medium to ensure perfect sink conditions. MNP were diluted 1:500 in phosphate buffer containing 2% bovine serum albumin, included to more closely model in vivo conditions. Released drug was assayed spectrophotometrically in the acceptor phase at predetermined timepoints (λ=230 nm). After five days the amount of the compounds remaining in MNP was measured following extraction in 1-octanol.

Series [5] relates to A10 cells. The experiment in a line: A10 inhibition by MNP after 4-day incubation with fetal bovine serum at 37° C. (recovered activity). The format is cell-based, rat. As to conditions: MNP incubated 4 days in FBS at 37° C. vs fresh MNP, magnetic conditions, 5-20 ng drug per well. How it is done: MNP loaded with 2′-PTX-glycol-suc-Chol or PTX at 1 mg/mL were diluted 1:500 in fetal bovine serum (FBS), placed on a tube rotator and incubated for 4 days at 37° C. modeling the exposure of stent-targeted MNP to the in vivo environment. MNP suspensions were then applied to A10 cells for 5 min in the presence of a high gradient magnetic field (See Example 9) in a dose range equivalent to 5-20 ng drug per well based on their initial drug loading. Their growth inhibitory effect was compared with that of fresh MNP applied in equivalent dilutions under magnetic conditions, and the ratio between their respective inhibition efficiencies was plotted as Recovered activity, % of control (See FIG. 4).

Series [6] can be described thus: Drug release from typical PTX MNP under sink conditions. Type of series: physicochemical. The conditions noted are these: MNP comprising PTX, iron oxides and polylactide carrier. The source says:
For example in a typical MNP comprising PTX, iron oxides and a polylactide carrier, about 50% and 80% of the drug is released under sink conditions after 4 hr and 24 hr, respectively. This may be too fast for optimal restenosis inhibition, given that the period of vulnerability to restenotic activity may extend for several weeks. It is believed that the large surface area to volume ratio and small linear dimensions of nanoparticles, combined with the relatively low molecular weight of PTX and limited affinity toward the carrier particles, result in the excessively rapid PTX escape from the nanoparticles. To deal with this problem, it has been found necessary to greatly increase the affinity of the PTX for the polymeric carrier. This has now been done by binding PTX to a structure (hereinafter “anchor”) that limits the diffusivity within the MNP compared with that of unbound PTX itself. The resulting PTX-anchor conjugate is a PTX prodrug. Prodrugs according to the invention are converted to the corresponding drugs (e.g., PTX) in vivo in a patient, which may be a human or other animal. The prodrug can be incorporated in the MNP with a high entrapment yield and can provide protracted drug release at the site of arterial injury.

Each structure is given as a SMILES string.

For `CC(=O)OC1C(=O)C2(C)C(O)CC3OCC3(OC(C)=O)C2C(OC(=O)c2ccccc2)C2(O)CC(OC(=O)C(OC(=O)CCC(=O)OC3CCC4(C)C(=CCC5C4CCC4(C)C(C(C)CCCC(C)C)CCC54)C3)C(NC(=O)c3ccccc3)c3ccccc3)C(C)=C1C2(C)C` (stereo not shown) [2′-PTX-suc-Chol], the “A10 cell growth inhibition” value in series [1] is “no growth inhibition”.

For the molecule `CCOC(C)=O` [ethyl acetate], the time of half-hydrolysis result in series [2] is “approximately 200 days”.

As for `CCOC(=O)COC(C)=O` [ethyl ester of acetoxyacetic acid], in series [2], the time of half-hydrolysis is 9 days.

Consider `CC(=O)O[C@H]1C(=O)[C@@]2(C)[C@H]([C@H](OC(=O)c3ccccc3)[C@]3(O)CC(OC(=O)[C@H](OC(=O)COC(=O)CCC(=O)O[C@H]4CC[C@@]5(C)C(=CCC6C7CCC(C(C)CCCC(C)C)[C@@]7(C)CCC65)C4)[C@@H](NC(=O)c4ccccc4)c4ccccc4)C(C)=C1C3(C)C)[C@]1(OC(C)=O)CO[C@@H]1C[C@@H]2O` (stereo partly shown) [2′-PTX-glycol-suc-Chol, PTX 2′-(3-cholesteryloxycarbonyl)propionyloxyacetate], for which the “A10 cell growth inhibition” value in series [1] is “dose-dependent A10 cell growth inhibition”. The “A10 cell growth inhibition, magnetic field (mag+)” value in series [3] was “comparable to that of MNP loaded with PTX”. In addition, in series [4], the “total recovered (release medium samples and upon experiment termination)” value was found to be 81%; the “initial drug payload still present in the MNP” value is recorded as 30%. For the same molecule, the “release kinetics from MNP vs. PTX” value in series [4] (external sink method, 5 days) is “significantly slower release kinetics”. The “Recovered activity, % of control (fraction of initial activity retained)” value in series [5] is recorded as “retained a larger fraction of its initial activity compared to PTX”.

As for `CC(=O)O[C@H]1C(=O)[C@@]2(C)[C@H]([C@H](OC(=O)c3ccccc3)[C@]3(O)CC(OC(=O)[C@H](OC(=O)CNC(=O)CCC(=O)O[C@H]4CC[C@@]5(C)C(=CCC6C7CCC(C(C)CCCC(C)C)[C@@]7(C)CCC65)C4)[C@@H](NC(=O)c4ccccc4)c4ccccc4)C(C)=C1C3(C)C)[C@]1(OC(C)=O)CO[C@@H]1C[C@@H]2O` (stereo partly shown) [2′-PTX-glycine-suc-Chol, PTX 2′-[N-(3-cholesteryloxycarbonyl)propionyl]glycinate], the “A10 cell growth inhibition” value in series [1] was “dose-dependent A10 cell growth inhibition”. The “A10 cell growth inhibition, magnetic field (mag+)” value in series [3] is recorded as “comparable to that of MNP loaded with PTX”.

Consider `CC(=O)O[C@H]1C(=O)[C@@]2(C)[C@H]([C@H](OC(=O)c3ccccc3)[C@]3(O)C[C@H](OC(=O)[C@H](O)[C@@H](NC(=O)c4ccccc4)c4ccccc4)C(C)=C1C3(C)C)[C@]1(OC(C)=O)CO[C@@H]1C[C@@H]2O` [PTX, Paclitaxel], for which, in series [4], the “total recovered (release medium samples and upon experiment termination)” value is 55%. In addition, the “initial drug payload still present in the MNP” value in series [4] is reported as “none”. The drug released entry was “about 50%” in series [6] (after 4 hr) and ~80% in series [6] (after 24 hr).

With `CCOC(=O)CNC(C)=O` [ethyl ester of N-acetylglycine, ethyl esters of N-acetylglycine], in series [2], the time of half-hydrolysis is 27 days.
